8 molecules from patent publication US6384188B1, “Lipopolysaccharide-binding and neutralizing peptides” (Dana-Farber Cancer Institute, Inc., priority 1993, dated 2002) can be followed below.

Bridge positions count the residues as written; N and C are the ends. Peptide text beside a SMILES is read from it. * marks the point of attachment. Biotin = O=C1N[C@H]2[C@H](CS[C@H]2CCCCC(=O)*)N1

The nature of data set [1]: ELISA binding of biotinylated peptides to immobilized lipid A. To be noted: biotinylated peptide 0.1-10 μg/ml on immobilized lipid A; FIG. 8, 9. On the technique in general: ELISA stands for enzyme-linked immunosorbent assay.
Description: The lipid A-binding activities of the peptides are shown in an ELISA format as follows. An ELISA plate (NUNC, Polysorp 96U) is coated for 90 minutes at 37° C. with 100 μl lipid A in PBS (0.25-1 μg/ml). All further steps are done at room temperature. After washing and blocking (10 min.) with PBS/0.1% Tween, the solid phase is incubated for 1 hour with 100 μl of increasing amounts (0.1 μg/ml-10 μg/ml) of purified synthetic peptides (dissolved in PBST) labelled at the N-terminus with biotin. After washing with PBS/0.1% Tween, the bound peptides are incubated for 45 min. with 100 μl streptavidin conjugated to alkaline phosphatase (Boehringer Mannheim GmbH; 1:10000 diluted in PBS/0.1% Tween), followed again by washing with PBS/0.1% Tween and 100 mM Tris pH 9.5. p-Nitrophenylphosphate (2 mg/ml in 100 mM Tris pH 9.5) is used as a substrate for alkaline phosphatase. The ELISA is read at 405 nm.
To investigate the importance of the constrained conformation for high affinity peptide-lipid A binding, binding activity of cyclic and the corresponding linear peptides is compared.
The nature of data set [2]: Binding of fluorescein-labelled LPS to biotinylated peptides immobilized via streptavidin. Details: species or system Salmonella enteriditis. To be noted: peptide 1 or 10 μg/ml on streptavidin plate, FITC-LPS 0.5 μg/ml; FIG. 12. The procedure:
To investigate the potential use of multimeric peptides for increasing the binding to LPS, individual peptides are coated on an ELISA plate to high surface concentrations. Immobilization is performed by first coating the plate with strepravidin and then binding the peptides via their N-terminal biotin groups. Thus, 100 μl streptavidin (Boehringer Mannheim GmbH; 10 μg/ml in PBS) is used for coating followed by washing, blocking (10 min.) with PBS/0.1% Tween and a 30 min. incubation with 100 μl of purified synthetic peptides (1 μg/ml or 10 μg/ml in PBST) labelled at the N-terminus with biotin. After washing with PBS/0.1% Tween the peptides are incubated for 1 hr With FITC-labelled LPS (SIGMA; Salmonella enteriditis; 0.5 μg/ml in PBS/0.1% Tween). After washing with PBS/0.1% Tween, the ELISA plate is incubated with 100 μl of an anti-FITC antibody conjugated to alkaline phosphatase (SIGMA; 1:2500 diluted in PBS/0.1% Tween) and washed with PBS/0.1% Tween and 100 mM Tris pH 9.5. p-Nitrophenyl-phosphate (2 mg/ml in 100 mM Tris pH 9.5) is used as a substrate for alkaline phosphatase. The ELISA is read at 405 nm. All steps are done at room temperature.

For data set [3], the system named is LALF binding to immobilized lipid A. The data set is described as follows: Competition of LALF:lipid A binding by peptides (ELISA). How it is done:
(§1) To investigate the specificity of peptides in binding lipid A and LPS, competition experiments with known endotoxin binding proteins such as LALF and LBP and the antibiotic polymyxin B are carried out. Thus an ELISA plate (NUNC, Polysorp 96U) is coated for 90 min. at 37° C. with 100 μl lipid A in PBS (0.25-0.3 μg/ml) or lipopolysaccharide in PBS (0.25-0.3 μg/ml). All further steps are done at room temperature. After washing and blocking (10 min.) with PBS/0.1% Tween, the solid phase is incubated for 1 hr with 100 μl or increasing amounts (0.01 μg/ml-100 μg/ml in PBS/0.1% Tween) of unlabelled or biotin-labelled peptides mixed with an endotoxin binding protein (LALF or LBP; 0.2 μg/ml in PBS/0.1% Tween). After washing with PBS/0.1% Tween, the ELISA plate is incubated for 45 min. with 100 μl of a rabbit antiserum against LALF or LBP, respectively. After washing with PBS/0.1% Tween the ELISA plate is incubated with 100 μl anti-rabbit antibody conjugated to alkaline phosphatase (SIGMA; 1:10000 diluted in PBS/0.1% Tween) and washed with PBS/0.1% Tween and 100 mM Tris pH 9.5. p-Nitrophenyl-phosphate (2 mg/ml in 100 mM Tris pH 9.5) is used as a substrate for alkaline phosphatase. The ELISA is read at 405 nm.

Data set [4] in a line: Chromogenic Limulus amebocyte lysate test. To be noted: peptides 0.1-10 μg/ml preincubated with LPS 15 min at 37° C.; FIG. 19. In kind it is biochemical, E. coli. How it is done:
(§2) The Limulus amebocyte Lysate test (gelling assay; sensitivity 0.125 EU/ml) and the Chromogenic Limulus amebocyte Lysate test (sensitivity 0.06 EU/ml) are performed according to the manufacturer's instruction (Bio*Whittaker, Walkersville, Md.) using E. coli 055:B5 lipopolysaccharide. For neutralisation of LPS, peptides (0.1-10 μg/ml) and LPS are incubated for 15 min. at 37° C. and then added to the Limulus lysate. […] The chromogenic assay allows quantification of the lipopolysaccharide neutralizing capacity of the peptides.

Data set [5] concerns LALF binding to immobilized lipid A. The data set is described as follows: Influence of serum on the competition of LALF:lipid A binding by peptide. To be noted: 100 μg/ml peptide, 10% fetal calf serum; FIG. 18. The procedure: as §1, with “nm. […]” for “nm.”
The test system of data set [6] is biotin-labelled LBP-14 binding to immobilized lipid A. The data set is described as follows: Competition of LBP14:lipid A binding by peptides and proteins (ELISA). Conditions: unlabelled competitor in increasing amounts, biotin-LBP-14 1 μg/ml; FIG. 16; very similar result with LALF-14. The procedure: An ELISA plate (NUNC, Polysorp 96U) is coated for 90 min. at 37° C. with 100 μl lipid A in PBS (0.2-0.3 μg/ml). All further steps are done at room temperature. After washing and blocking (10 min.) with PBS/0.1%. Tween, the solid phase is incubated for 1 hr with 100 μl of increasing amounts (0.01 μg/ml-10 μg/ml) of unlabelled peptides or proteins mixed with a biotin-labelled peptide (1 μg/ml in PBST/0.1% Tween). After washing with PBS/0.1% Tween, 100μl streptavidin conjugated to alkaline phosphatase (Boehringer Mannheim GmbH, 1:10000 diluted in PBS/0.1% Tween) is added to the wells. This incubation is followed by washing with PBS/0.1% Tween and 100 mM Tris pH 9.5. p-Nitrophenyl-phosphate (2 mg/ml in 100 mM Tris pH 9.5) is used as a substrate for alkaline phosphatase. The ELISA is read at 405 nm.
CD14 is used to compete the peptide-lipid A binding. The principle of such a binding assay is the same as for the LALF- or LBP-lipid A competition assays in which a constant amount of detectable peptide or protein is competed by an increasing amount of another peptide or protein. Instead of detecting LALF, bound biotin-labelled peptide is detected with streptavidin conjugated to alkaline phosphatase, and the labelled peptide concentration is kept constant while the unlabelled peptide or protein amount is increased. […] A very similar result is observed when LALF-14 is used instead of LBP-14.

The nature of data set [7]: LPS binding as determined by ELISA (general description). Details: species or system E. coli. An excerpt: (§3) In a still further preferred embodiment, the present invention provides for peptides which effectively bind to LPS and are constrained to adopt a circular conformation by an intramolecular bridge. In this context, the circular conformation can be brought about by any one of a number of intramolecular bridges. Preferably, the peptide may incorporate two cysteine residues between which a disulfide bond is formed by an oxidation reaction. Alternatively, the two cysteines may be linked through a homo-bifunctional cross-linking reagent, such as a bis-maleimide. Particularly preferred are the cyclic peptides comprising amino acids 31 to 52 and amino acids 38 to 45 of LALF, each stabilized by a disulfide bond formed between two cysteine residues, producing a cyclic conformation (FIG. 2). […] This defines a minimal LPS-binding domain to be the peptide spanning amino acids 38 to 45 of LALF. […] Thus, particularly preferred are also the peptides spanning amino acids 90 to 101 and amino acids 90 to 97 of LBP (FIG. 3). […] This defines a second minimal LPS binding domain to be the peptide spanning amino acids 90 to 97 of LBP. […] Particularly preferred are the peptides spanning amino acids 90 to 97 and amino acids 90 to 101 of BPI (FIG. 4). This defines a third minimal LPS-binding domain to be the peptide spanning amino acids 90 to 97 of BPI.

Data set [8] in a line: LPS binding as shown by ELISA (general description). Conditions: FIG. 2-7 peptides.
Description: as §3

Data set [9] is described as follows: Limulus amebocyte lysate test (gelling assay). In kind it is biochemical, E. coli. Conditions: peptides 0.1-10 μg/ml preincubated with LPS 15 min at 37° C.; FIG. 19. How it is done: as §2
The test system of data set [10] is LBP binding to immobilized lipid A. The data set is described as follows: Competition of LBP:lipid A binding by peptides (ELISA). To be noted: 100 μg/ml peptide; FIG. 15. How it is done:
as §1
The ability of the peptides to compete with LBP for binding to LPS is determined in the same way as in Example 5, except that LALF is replaced with LBP (see FIG. 15). […]

The test system of data set [11] is monocytes (LPS Re-LPS F515 induced TNF release). Nature of the data set: Inhibition of LPS-mediated TNF release by monocytes. Type of data set: cell-based, human. To be noted: peptide 10 μg/ml preincubated with LPS; TNF by ELISA; FIG. 20. How it is done: Monocytes are purified with a ficoll gradient (d=1.077) from whole blood by centrifugation for 20 min. at 2200 rpm at room temperature. Ficoll is removed by washing 3 times with PBS. Purified monocytes are counted and diluted to 2×10^6 cells/900 μl in medium (RPMI+) or medium with 0.1%-10% human serum. For TNF induction, 2×10^6 monocytes (in 900 μl medium or medium with serum) and 100 μl of LPS (Re-LPS F515; 0.1 ng/ml-10 ng/ml) or mixtures of LPS with peptides (10 μg/ml) (preincubated for 15 min. at 37° C.) are incubated in a 24 well plate (NUNC) for 2 to 5 hr. The supernatant is taken off and spun twice for 2 min. at 1500 rpm, once for 5 min. at 15000 rpm and stored at −20° C. for TNF determination. The induced TNF is assayed by ELISA according to the manufacturer's instruction (BioSource International, California) using a 50 μl sample of thawed supernatant.

Where [12] appears, read: peptide 0.01-100 μg/ml, LALF 0.2 μg/ml, FIG. 13, 14.

As to “Biotin-Z-K-C-F-T-R-R-A-K-W-R-C (Z=β-alanine) [MS-21]”, in data set [1], the “lipid A-binding activity (ELISA)” value is “binds lipid A weaker than LALF-14 and LBP-14, but slightly better than BPI-14”. The “binding of FITC-labelled LPS to immobilized peptide” value in data set [2] is reported as “highest binding affinity to LPS”. For the same molecule, the “competition with LALF for lipid A binding” value in data set [3] (at 100 μg/ml peptide, FIG. 14) is given as roughly 80%.

On to “I-K-T-K-K-F-L-K-K-T (IKTKKFLKKT) [PolP-1]”, for which, in data set [4], the “inhibition of the chromogenic Limulus amebocyte lysate assay” value is recorded as “up to 25%”. In data set [5], the “competition with LALF for lipid A binding in the presence of 10% serum” value is listed as “only inhibit slightly above background”. For the same molecule, in data set [6], the “competition of LBP-14 binding to lipid A” value is given as “only slightly above the background determined by lysozyme as competitor”. Moreover, the “competition with LALF for lipid A binding” value in data set [3] (setting [12]) is on record as “hardly competes with LALF for lipid A binding”.

As for `CC(C)C[C@@H]1NC(=O)[C@H](CCCNC(=N)N)NC(=O)[C@H](CCCNC(=N)N)NC(=O)[C@H](Cc2ccccc2)NC(=O)[C@H]([C@@H](C)O)NC(=O)[C@@H](NC(=O)CCCC[C@@H]2SC[C@@H]3NC(=O)N[C@@H]32)CSSC[C@@H](C(=O)O)NC(=O)[C@H](CCCCN)NC(=O)[C@H](Cc2c[nH]c3ccccc23)NC(=O)[C@H](CCCCN)NC1=O` [LALF-10] (Biotin-CTFRRLKWKC-OH; disulfide 1-10), the “binding to E. coli EH 100 LPS as determined by ELISA” value in [7] was “Both bind lipid A and, additionally, two different types of LPS-molecules”.

Consider “Biotin-Z-C-K-W-K-I-R-K-F-S-C-N (Z=β-alanine) [MS-22]”, for which, in data set [1], the “lipid A-binding activity (ELISA)” value was “binds lipid A clearly above background level and with a similar activity to LBP-10-1, but weaker than MS-21”.

Turning to “amino acids 90 to 97 of BPI: peptide spanning amino acids 90 to 97 of BPI, cyclic by disulfide bond between two cysteines”, in data set [8], the “binding to LPS as shown by ELISA” value is “able to bind LPS”.

For the molecule polymyxin B, the “inhibition of LPS-mediated gelling of Limulus amebocyte lysate” value in data set [9] was “inhibit the assays”. Also, the “competition with LBP for lipid A binding” value in data set [10] was “not able to compete with LBP for binding to lipid A”. In addition, in data set [5], the “competition with LALF for lipid A binding in the presence of 10% serum” value is recorded as “also inhibiting in the presence of 10% serum”. In data set [6], the “competition of LBP-14 binding to lipid A” value is “only weak competition activity at the highest concentration used”. Further, the “competition with LALF for lipid A binding” value in data set [3] (setting [12]) is “able to displace LALF almost completely from immobilized lipid A”. Also, in [11], the “inhibition of TNF release” value was 95%.

As for `CC[C@H](C)[C@@H]1NC(=O)[C@H](CCCNC(=N)N)NC(=O)[C@H](Cc2ccc(O)cc2)NC(=O)[C@H](Cc2c[nH]cn2)NC(=O)[C@@H](N)CSSC[C@@H](C(=O)O)NC(=O)[C@H](Cc2c[nH]c3ccccc23)NC(=O)[C@H](Cc2ccccc2)NC(=O)[C@H](CCCCN)NC(=O)CNC(=O)[C@H](CCCCN)NC(=O)[C@H](Cc2ccc(O)cc2)NC(=O)[C@H](CCCCN)NC(=O)[C@H](Cc2c[nH]c3ccccc23)NC(=O)[C@H](CCCCN)NC(=O)[C@H](CC(C)C)NC(=O)[C@H](CCCNC(=N)N)NC(=O)[C@H](CCCNC(=N)N)NC(=O)[C@H](Cc2ccccc2)NC(=O)[C@H]([C@@H](C)O)NC(=O)[C@@H]2CCCN2C(=O)[C@H](CCCCN)NC1=O` [amino acids 31 to 52 of LALF] (H-CHYRIKPTFRRLKWKYKGKFWC-OH; disulfide 1-22; N-terminus and C-terminus assumed), the “binding to E. coli EH 100 LPS as determined by ELISA” value in data set [7] is “Both bind lipid A and, additionally, two different types of LPS-molecules”.

With lysozyme, the “competition of LBP-14 binding to lipid A” value in data set [6] was “background determined by lysozyme as competitor”. The “competition with LALF for lipid A binding” value was 10% in data set [3] (at 100 μg/ml peptide, FIG. 14) and “not able to compete with LALF” in data set [3] (setting [12]).
